Reference: patent publication US11390604B2 (Hoffmann-La Roche Inc., priority 2019, dated 2022)
Structures can show the parent of a compound that is named as a salt.

What follows are molecules tested on Acinetobacter baumannii ATCC 17961 (assay: Antimicrobial susceptibility testing: 90% growth inhibitory concentration (IC90) determination). Conditions: ATCC17961, Acinetobacter baumannii ATCC 17961, Iso-Sensitest broth, read-out: ATCC 17961 IC90.
Format: cell-based
Outline: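 Broth microdilution in Iso-Sensitest medium, twofold series (e.g. 50 to 0.097 μM final), ~5×10^5 CFU/ml inoculum, 35±2 °C. OD600 read every 20 min over 16 h. IC90 derived from growth inhibition during logarithmic phase.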

Row | IC90 [nM] | SMILES
1 | 268 | Cn1c(-c2cn(CC(F)F)nc2C(F)(F)F)cnc1C(=O)Nc1ccc(C(=O)NC2C3CN(C(=O)C4CCNCC4)CC32)c(Cl)c1 (stereo not drawn) [Example 235, N-(3-chloro-4-((3-(piperidine-4-carbonyl)-3-azabicyclo[3.1.0]hexan-6-yl)carbamoyl)phenyl)-5-(1-(2,2-difluoroethyl)-3-(trifluoromethyl)-1H-pyrazol-4-yl)-1-methyl-1H-imidazole-2-carboxamide formate]
2 | 270 | Cn1c(-c2cn(C3CC3)nc2C(F)(F)F)cnc1C(=O)Nc1ccc(C(=O)N2CCN(C(=O)NC3CCNC3)CC2)c(Cl)c1 (stereo not drawn) [Example 236, 4-[2-chloro-4-[[5-[1-cyclopropyl-3-(trifluoromethyl)pyrazol-4-yl]-1-methylimidazole-2-carbonyl]amino]benzoyl]-N-pyrrolidin-3-ylpiperazine-1-carboxamide;formic acid]
3 | 274 | Cn1c(-c2cn(C3CC3)nc2C(F)(F)F)cnc1C(=O)Nc1ccc(C(=O)N2CCN(C(=O)N[C@H]3C[C@@H](N)C3)CC2)c(Cl)c1 [Example 240, rac-N-((1s,3s)-3-aminocyclobutyl)-4-(2-chloro-4-(5-(1-cyclopropyl-3-(trifluoromethyl)-1H-pyrazol-4-yl)-1-methyl-1H-imidazole-2-carboxamido)benzoyl)piperazine-1-carboxamide formate]
4 | 283 | C#CCn1cc(-c2cnc(C(=O)Nc3ccc(C(=O)NCCOCCN)c(CC)c3)n2C)c(C(F)(F)F)n1 [Example 242, N-[4-[2-(2-aminoethoxy)ethylcarbamoyl]-3-ethyl-phenyl]-1-methyl-5-[1-prop-2-ynyl-3-(trifluoromethyl)pyrazol-4-yl]imidazole-2-carboxamide; formic acid]
5 | 286 | Cn1c(-c2cn(C3CC3)nc2C(F)(F)F)cnc1C(=O)Nc1ccc(C(=O)N2CCN(C(=O)[C@@H]3CCC[C@@H]3N)CC2)c(Cl)c1 [Example 243, N-(4-(4-((1R,2S)-2-aminocyclopentane-1-carbonyl)piperazine-1-carbonyl)-3-chlorophenyl)-5-(1-cyclopropyl-3-(trifluoromethyl)-1H-pyrazol-4-yl)-1-methyl-1H-imidazole-2-carboxamide hydrochloride]

Further lines, the molecule ahead of its results:

Row | SMILES | IC90 [nM]
6 | C=C(C)Cn1cc(-c2cnc(C(=O)Nc3ccc(C(=O)N[C@H]4C[C@@H](N)C4)c(Cl)c3)n2C)c(C(F)(F)F)n1 [Example 234, rac-N-(4-(((1s,3s)-3-aminocyclobutyl)carbamoyl)-3-chlorophenyl)-1-methyl-5-(1-(2-methylallyl)-3-(trifluoromethyl)-1H-pyrazol-4-yl)-1H-imidazole-2-carboxamide hydrochloride] | 268
7 | CCn1cc(-c2cnc(C(=O)Nc3ccc(C(=O)N4CCC(CCN)CC4)c(Cl)c3)n2C)c(C(F)(F)F)n1 [Example 239, N-(4-(4-(2-aminoethyl)piperidine-1-carbonyl)-3-chlorophenyl)-5-(1-ethyl-3-(trifluoromethyl)-1H-pyrazol-4-yl)-1-methyl-1H-imidazole-2-carboxamide hydrochloride] | 273
8 | Cn1c(-c2cn(Cc3ccccc3)nc2C(F)(F)F)cnc1C(=O)Nc1ccc(C(=O)N2CCN(C(=O)C3CCNCC3)CC2)c(Cl)c1 [Example 241, 5-(1-benzyl-3-(trifluoromethyl)-1H-pyrazol-4-yl)-N-(3-chloro-4-(4-(piperidine-4-carbonyl)piperazine-1-carbonyl)phenyl)-1-methyl-1H-imidazole-2-carboxamide hydrochloride] | 281
9 | Cn1c(-c2cn(CC(F)F)nc2C(F)(F)F)cnc1C(=O)Nc1ccc(S(=O)(=O)N2CCNCC2)cc1 [Example 244, 5-(1-(2,2-difluoroethyl)-3-(trifluoromethyl)-1H-pyrazol-4-yl)-1-methyl-N-(4-(piperazin-1-ylsulfonyl)phenyl)-1H-imidazole-2-carboxamide hydrochloride] | 287
